# Patent publication US20260167615A1, “COMPOUNDS AND COMPOSITIONS AS GPR52 MODULATORS” (Neurocrine Biosciences, Inc., priority 2022, published 2026)
# Read-outs that look alike come from different tables or passages of the source.
# Key:
# [1] = Stability in mammalian liver microsomes (Example D); type: in vitro ADME; details: human liver microsomes 0.5 mg/mL, 0.5 μM compound, 37° C.; scaled from in vitro half-life (Obach method); linker comparators
# Description: Compounds of Formula I were assessed for their stability in mammalian liver microsomes. A compound of Formula I (0.5 μM) was incubated with pooled mixed gender human liver microsomes (HLM) (0.5 mg/mL total protein) at 37° C. in the presence of an NADPH-generating system containing 50 mM, pH 7.4 potassium phosphate buffer, 3 mM magnesium chloride, 1 mM EDTA, 1 mM NADP, 5 mM glusose-6-phosphate, and 1 Unit/mL glucose-6-phosphate dehydrogenase. All concentrations were relative to the final incubation volume of 125 μL. Incubations were conducted at 37° C. for 0, 5, 10, 20, 40 and 60 minutes in a water bath and terminated by rapid mixing with 150 μL of ice-cold acetonitrile containing internal standard, and precipitated proteins were removed by centrifugation prior to LC-MS/MS analysis. Aliquots of the resulting supernatant fractions were analyzed by LC-MS/MS monitoring for depletion of parent compound. The resultant peak area ratio versus time data was fitted to a non-linear regression using XLfit Scientific Curve Fitting Software (IDBS Ltd., Surrey, UK) and half-life was calculated from the slope. Pharmacokinetic parameters were predicted using the method described by Obach et al (J. Pharmcol. Exp. Ther. 1997; 283:46.58). Briefly, values for intrinsic clearance were calculated from the in vitro half-life data and were then scaled to represent the clearance expected in the entire animal (human). Additional values calculated included predicted extraction ratio and predicted maximum bioavailability. For example, the O-linker has better metabolic stability relative to the methyl linker or the —CH2O-linker, as shown by the following comparators
# [2] = biological target: recombinant human GPR52 (Homo sapiens, UniProt Q9Y2T5); test: HTRF cAMP assay, GPR52 activity (Example A); type: cell-based; details: for Emax: maximum cAMP at 10 μM or 31.6 μM test compound, as percentage of Emax of control compound 4-(3-(3-fluoro-5-(trifluoromethyl)benzyl)-5-methyl-4,5-dihydro-1H-1,2,4-triazol-1-yl)-2-methylbenzamide
# How it was run: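 Flp-In CHO cells stably expressing human GPR52 (20,000/well) incubated 30 min at room temperature with compound, cAMP then quantified by competitive HTRF. EC50 from nonlinear fits of cAMP-transformed data normalized to positive control; Emax is top plateau at 10 or 31.6 μM, given as % of a reference agonist's Emax.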
# [3] = average EC50 (n=1 to 15), Flp-In-CHO cells stably expressing recombinant human GPR52, cAMP HTRF, read-out: EC50 (N=)
# Sequence of recombinant human GPR52 (Q9Y2T5 whole entry): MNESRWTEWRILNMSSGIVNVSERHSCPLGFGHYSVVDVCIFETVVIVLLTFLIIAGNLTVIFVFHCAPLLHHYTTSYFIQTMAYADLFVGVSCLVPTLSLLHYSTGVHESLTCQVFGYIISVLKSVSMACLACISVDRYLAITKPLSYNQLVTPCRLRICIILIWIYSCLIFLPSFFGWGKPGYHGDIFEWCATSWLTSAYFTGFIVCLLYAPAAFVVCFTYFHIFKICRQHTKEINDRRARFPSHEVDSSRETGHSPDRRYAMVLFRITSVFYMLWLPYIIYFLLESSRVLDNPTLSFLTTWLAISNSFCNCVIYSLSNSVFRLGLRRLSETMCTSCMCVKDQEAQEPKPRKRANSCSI
"EC50 [2, 3]",Emax [2],"EC50 ([2]; comparison of position of the nitrogen in the pyridine ring relative to the oxygen linker, read-out: Activity EC50)",SMILES,Metabolic stability - predicted systemic clearance [1]
–,–,–,Cc1cc(-c2cc(Cc3ccc4cnn(C)c4c3)ccn2)ccc1C(N)=O,"Metabolic stability - predicted systemic clearance (example D, above) is 11.3 ml/min/kg"
–,–,–,Cc1cc(-c2cc(COc3ccc4c(cnn4C)c3)ccn2)ccc1C(N)=O,"Metabolic stability - predicted systemic clearance (example D, above) is 12.3 ml/min/kg"
101 to 1000 nM,90%,–,"CCc1cc(-c2cc(Oc3ccc4nccnc4c3)ccn2)ccc1C(N)=O [Example 125, 2-ethyl-4-(4-(quinoxalin-6-yloxy)pyridin-2-yl)benzamide]",–
101 to 1000 nM,103%,–,"Cc1cc(-c2cc(Oc3cnc4c(c3)c(F)nn4C)ccn2)ccc1C(N)=O [Example 126, 4-(4-((3-fluoro-1-methyl-1H-pyrazolo[3,4-b]pyridin-5-yl)oxy)pyridin-2-yl)-2-methylbenzamide]",–
101 to 1000 nM,116%,–,"Cc1cc(-c2cc(Oc3cnc4c(F)nn(C)c4c3)ccn2)ccc1C(N)=O [Example 127, 4-(4-((3-fluoro-1-methyl-1H-pyrazolo[4,3-b]pyridin-6-yl)oxy)pyridin-2-yl)-2-methylbenzamide]",–
25 to 100 nM,118%,–,"Cc1cc(-c2cc(Oc3ccc4c(F)nn(C)c4c3)ccn2)ccc1C(N)=O [Example 128, 4-(4-((3-fluoro-1-methyl-1H-indazol-6-yl)oxy)pyridin-2-yl)-2-methylbenzamide]",–
101 to 1000 nM,126%,–,"Cc1cc(-c2cc(Oc3ccc4c(c3)c(F)nn4C)ccn2)ccc1C(N)=O [Example 129, 4-(4-((3-fluoro-1-methyl-1H-indazol-5-yl)oxy)pyridin-2-yl)-2-methylbenzamide]",–
101 to 1000 nM,137%,–,"CCc1cc(-c2cc(Oc3cnc4c(c3)c(F)nn4C)ccn2)ccc1C(N)=O [Example 130, 2-ethyl-4-(4-((3-fluoro-1-methyl-1H-pyrazolo[3,4-b]pyridin-5-yl)oxy)pyridin-2-yl)benzamide]",–
101 to 1000 nM,114%,–,"CCc1cc(-c2cc(Oc3cnc4c(F)nn(C)c4c3)ccn2)ccc1C(N)=O [Example 131, 2-ethyl-4-(4-((3-fluoro-1-methyl-1H-pyrazolo[4,3-b]pyridin-6-yl)oxy)pyridin-2-yl)benzamide]",–
25 to 100 nM,110%,–,"CCc1cc(-c2cc(Oc3ccc4c(F)nn(C)c4c3)ccn2)ccc1C(N)=O [Example 132, 2-ethyl-4-(4-((3-fluoro-1-methyl-1H-indazol-6-yl)oxy)pyridin-2-yl)benzamide]",–
101 to 1000 nM,141%,–,"CCc1cc(-c2cc(Oc3ccc4c(c3)c(F)nn4C)ccn2)ccc1C(N)=O [Example 133, 2-ethyl-4-(4-((3-fluoro-1-methyl-1H-indazol-5-yl)oxy)pyridin-2-yl)benzamide]",–
101 to 1000 nM,117%,–,"CCc1cc(-c2cc(Oc3ccc4c(C)nn(C(F)(F)F)c4c3)ccn2)ccc1C(N)=O [Example 134, 2-ethyl-4-(4-((3-methyl-1-(trifluoromethyl)-1H-indazol-6-yl)oxy)pyridin-2-yl)benzamide]",–
101 to 1000 nM,115%,–,"Cc1cc(-c2cc(Oc3ccc4c(C)nn(C(F)(F)F)c4c3)ccn2)ccc1C(N)=O [Example 135, 2-methyl-4-(4-((3-methyl-1-(trifluoromethyl)-1H-indazol-6-yl)oxy)pyridin-2-yl)benzamide]",–
–,–,89 nM,Cc1cc(-c2cc(Oc3ccc4c(c3)c(C)nn4C)ccn2)ccc1C(N)=O [drawing 5],–
–,–,–,Cc1cc(-c2cc(Oc3ccc4cnn(C)c4c3)ccn2)ccc1C(N)=O [drawing 281],"Metabolic stability - predicted systemic clearance (example D, above) is 3.6 ml/min/kg"
–,–,–,Cc1cc(-c2cc(Oc3ccc4c(cnn4C)c3)ccn2)ccc1C(N)=O [drawing 283],"Metabolic stability - predicted systemic clearance (example D, above) is 8.0 ml/min/kg"
